Results from patent US8106091B2, “Inhibitors of IKK-beta serine-threonine protein kinase” (Chroma Therapeutics Ltd., priority 2006, dated 2012).

Columns and labels:
[1] = target: T1, IKBKB (IKKβ) (Homo sapiens, UniProt O14920); test: IKKβ enzyme assay (Z'-LYTE, Invitrogen); type: biochemical; conditions: ATP at or close to Km; read-out: Inhibitor activity versus IKKβ
T1 construct: purchased Invitrogen (Paisley, UK)
T1 sequence (O14920 1-756): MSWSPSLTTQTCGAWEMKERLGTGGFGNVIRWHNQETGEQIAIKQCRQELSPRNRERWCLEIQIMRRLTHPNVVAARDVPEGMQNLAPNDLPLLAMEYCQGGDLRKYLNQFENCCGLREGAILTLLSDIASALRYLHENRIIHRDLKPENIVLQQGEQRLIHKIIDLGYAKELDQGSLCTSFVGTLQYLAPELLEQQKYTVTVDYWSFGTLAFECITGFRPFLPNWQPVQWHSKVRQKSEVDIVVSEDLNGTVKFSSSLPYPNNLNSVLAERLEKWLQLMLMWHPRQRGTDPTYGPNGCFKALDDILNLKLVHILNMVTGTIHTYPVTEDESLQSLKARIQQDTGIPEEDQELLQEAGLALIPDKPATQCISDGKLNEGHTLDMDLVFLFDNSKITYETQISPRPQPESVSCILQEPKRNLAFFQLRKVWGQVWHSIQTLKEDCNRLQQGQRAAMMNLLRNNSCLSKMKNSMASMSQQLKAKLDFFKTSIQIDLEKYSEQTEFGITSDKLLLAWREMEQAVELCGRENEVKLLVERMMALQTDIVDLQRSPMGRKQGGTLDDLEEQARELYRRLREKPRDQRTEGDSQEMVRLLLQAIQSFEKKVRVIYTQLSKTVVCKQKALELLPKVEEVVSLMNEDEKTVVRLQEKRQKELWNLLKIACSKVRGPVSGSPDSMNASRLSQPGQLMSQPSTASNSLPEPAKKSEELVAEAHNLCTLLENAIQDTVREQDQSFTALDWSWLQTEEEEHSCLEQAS
Procedure: The ability of compounds to inhibit IKKβ kinase activity was measured in an assay performed by Invitrogen (Paisley, UK). The Z′-LYTE™ biochemical assay employs a fluorescence-based, coupled-enzyme format and is based on the differential sensitivity of phosphorylated and non-phosphorylated peptides to proteolytic cleavage. The peptide substrate is labelled with two fluorophores—one at each end—that make up a FRET pair. In the primary reaction, the kinase transfers the gamma-phosphate of ATP to a single serine or threonine residue in a synthetic FRET-peptide. In the secondary reaction, a site-specific protease recognizes and cleaves non-phosphorylated FRET-peptides. Phosphorylation of FRET-peptides suppresses cleavage by the Development Reagent. Cleavage disrupts FRET between the donor (i.e., coumarin) and acceptor (i.e. fluorescein) fluorophores on the FRET-peptide, whereas uncleaved, phosphorylated FRET-peptides maintain FRET. A […] method, which calculates the ratio (the Emission Ratio) of donor emission to acceptor emission after excitation of the donor fluorophore at 400 nm, is used to quantitate reaction progress.
The final 10 μL Kinase Reaction consists of 0.9-8.0 ng IKBKB (IKKβ), 2 μM Ser/Thr 05 Peptide and ATP in 50 mM HEPES pH 7.5, 0.01% BRIJ-35, 10 mM MgCl2, 1 mM EGTA. The assay is performed at an ATP concentration at, or close to the Km. After the 60 minute Kinase Reaction incubation at room temperature, 5 μL of a 1:128 dilution of Development Reagent is added. The assay plate is incubated for a further 60 minutes at room temperature and read on a fluorescence plate reader.
Duplicate data points are generated from a ⅓ log dilution series of a stock solution of test compound in DMSO. Nine dilutions steps are made from a top concentration of 10 μM, and a ‘no compound’ blank is included. Data is collected and analysed using XLfit software from IDBS. The dose response curve is curve fitted to model number 205 (sigmoidal dose-response model). From the curve generated, the concentration giving 50% inhibition is determined and reported.

[2] = tested on: THP-1 cells; test: LPS-stimulation of THP-1 cells, TNF-α release; type: cell-based; conditions: Homo sapiens, LPS 1 μg/ml, 6 hrs, inhibitor added 2 hrs before, read-out: Inhibitor activity versus THP-1 TNFα release
Procedure: LPS-Stimulation of THP-1 Cells
THP-1 cells were plated in 100 μl at a density of 4×10^4 cells/well in V-bottomed 96 well tissue culture treated plates and incubated at 37° C. in 5% CO2 for 16 hrs. 2 hrs after the addition of the inhibitor in 100 μl of tissue culture media, the cells were stimulated with LPS (E coli strain 005:B5, Sigma) at a final concentration of 1 μg/ml and incubated at 37° C. in 5% CO2 for 6 hrs. TNF-α levels were measured from cell-free supernatants by sandwich ELISA (R&D Systems #QTA00B)

Structure (SMILES)	IC50 [1] [µM]	IC50 [2] [µM]
NC(=O)Nc1sc(-c2ccc(OCC[C@H](N)C(=O)OC3CCCC3)cc2)cc1C(N)=O [Example 2, Cyclopentyl O-{4-[4-carbamoyl-5-(carbamoylamino)-2-thienyl]phenyl}-L-homoserinate]	< 1	1 to 5
NC(=O)Nc1sc(-c2ccc(OCCC[C@@H](N)C(=O)OC3CCCC3)cc2)cc1C(N)=O [Example 4, Cyclopentyl 5-{4-[4-carbamoyl-5-(carbamoylamino)-2-thienyl]phenoxy}-D-norvalinate]	< 1	1 to 5
NC(=O)Nc1sc(-c2ccc(CCC[C@@H](N)C(=O)OC3CCCC3)cc2)cc1C(N)=O [Example 12, Cyclopentyl 5-{4-[4-carbamoyl-5-(carbamoylamino)-2-thienyl]phenyl}-D-norvalinate]	< 1	< 1
NC(=O)Nc1sc(-c2ccc(COCC[C@H](N)C(=O)OC3CCCC3)cc2)cc1C(N)=O [Example 17, Cyclopentyl O-{4-[4-carbamoyl-5-(carbamoylamino)-2-thienyl]benzyl}-L-homoserinate]	< 1	1 to 5
NC(=O)Nc1sc(-c2ccc(OCC[C@H](NC3CCCCC3)C(=O)OC3CCCC3)cc2)cc1C(N)=O [Example 19, Cyclopentyl O-{4-[4-carbamoyl-5-(carbamoylamino)thiophen-2-yl]phenyl}-N-cyclohexyl-L-homoserinate]	< 1	> 5
NC(=O)Nc1sc(-c2ccc(/C=C/C[C@@H](NC3CCCCC3)C(=O)OC3CCCC3)cc2)cc1C(N)=O [Example 20, Cyclopentyl (2R,4E)-5-{4-[4-carbamoyl-5-(carbamoylamino)thiophen-2-yl]phenyl}-2-(cyclohexylamino)pent-4-enoate]	< 1	1 to 5
NC(=O)Nc1sc(-c2ccc(OCC[C@@H](N)C(=O)O)cc2)cc1C(N)=O [Example 25, O-{4-[4-Carbamoyl-5-(carbamoylamino)-2-thienyl]phenyl}-D-homoserine]	< 1	–
NC(=O)Nc1sc(-c2ccc(OCCC[C@H](N)C(=O)O)cc2)cc1C(N)=O [Example 27, 5-{4-[4-carbamoyl-5-(carbamoylamino)-2-thienyl]phenoxy}-L-norvaline]	< 1	–
NC(=O)Nc1sc(-c2ccc(OCCC[C@@H](N)C(=O)O)cc2)cc1C(N)=O [Example 28, 5-{4-[4-carbamoyl-5-(carbamoylamino)-2-thienyl]phenoxy}-D-norvaline]	< 1	–
Cc1cc(OCC[C@H](N)C(=O)O)ccc1-c1cc(C(N)=O)c(NC(N)=O)s1 [Example 29, O-{4-[4-carbamoyl-5-(carbamoylamino)-2-thienyl]-3-methylphenyl}-L-homoserine]	< 1	–
Cc1cc(-c2cc(C(N)=O)c(NC(N)=O)s2)ccc1OCC[C@H](N)C(=O)O [Example 30, O-{4-[4-carbamoyl-5-(carbamoylamino)-2-thienyl]-2-methylphenyl}-L-homoserine]	< 1	–
NC(=O)Nc1sc(-c2ccc(OCC[C@H](N)C(=O)O)cc2Cl)cc1C(N)=O [Example 31, O-{4-[4-carbamoyl-5-(carbamoylamino)-2-thienyl]-3-chlorophenyl}-L-homoserine]	< 1	–
NC(=O)Nc1sc(-c2ccc(OCC[C@H](N)C(=O)O)c(Cl)c2)cc1C(N)=O [Example 32, O-{4-[4-carbamoyl-5-(carbamoylamino)-2-thienyl]-2-chlorophenyl}-L-homoserine]	< 1	–
NC(=O)Nc1sc(-c2ccc(/C=C/C[C@H](N)C(=O)O)cc2)cc1C(N)=O [Example 33, (2S,4E)-2-amino-5-{4-[4-carbamoyl-5-(carbamoylamino)-2-thienyl]phenyl}pent-4-enoic acid]	< 1	–
NC(=O)Nc1sc(-c2ccc(/C=C/C[C@@H](N)C(=O)O)cc2)cc1C(N)=O [Example 34, (2R,4E)-2-amino-5-{4-[4-carbamoyl-5-(carbamoylamino)-2-thienyl]phenyl}pent-4-enoic acid]	< 1	–
NC(=O)Nc1sc(-c2ccc(CCC[C@H](N)C(=O)O)cc2)cc1C(N)=O [Example 35, 5-{4-[4-carbamoyl-5-(carbamoylamino)-2-thienyl]phenyl}-L-norvaline]	< 1	–
NC(=O)Nc1sc(-c2ccc(CCC[C@@H](N)C(=O)O)cc2)cc1C(N)=O [Example 36, 5-{4-[4-carbamoyl-5-(carbamoylamino)-2-thienyl]phenyl}-D-norvaline]	< 1	–
NC(=O)Nc1sc(-c2ccc(/C=C/C[C@H](N)C(=O)O)cc2Cl)cc1C(N)=O [Example 37, (2S,4E)-2-amino-5-{4-[4-carbamoyl-5-(carbamoylamino)-2-thienyl]-3-chlorophenyl}pent-4-enoic acid]	< 1	–
Cc1cc(-c2cc(C(N)=O)c(NC(N)=O)s2)ccc1/C=C/C[C@H](N)C(=O)O [Example 38, (2S,4E)-2-amino-5-{4-[4-carbamoyl-5-(carbamoylamino)-2-thienyl]-2-methylphenyl}pent-4-enoic acid]	< 1	–
NC(=O)Nc1sc(-c2ccc(C#CC[C@H](N)C(=O)O)cc2)cc1C(N)=O [Example 39, (2S)-2-amino-5-{4-[4-carbamoyl-5-(carbamoylamino)-2-thienyl]phenyl}pent-4-ynoic acid]	< 1	–
NC(=O)Nc1sc(-c2ccc(C[C@H](N)C(=O)O)cc2)cc1C(N)=O [Example 40, 4-[4-carbamoyl-5-(carbamoylamino)-2-thienyl]-L-phenylalanine]	< 1	–
NC(=O)Nc1sc(-c2ccc(COCC[C@H](N)C(=O)O)cc2)cc1C(N)=O [Example 41, O-{4-[4-carbamoyl-5-(carbamoylamino)-2-thienyl]benzyl}-L-homoserine]	< 1	–
NC(=O)Nc1sc(-c2ccc(/C=C\C[C@H](N)C(=O)O)cc2)cc1C(N)=O [Example 42, (2S,4Z)-2-amino-5-{4-[4-carbamoyl-5-(carbamoylamino)-2-thienyl]phenyl}pent-4-enoic acid]	< 1	–
NC(=O)Nc1sc(-c2ccc(OCC[C@H](NC3CCCCC3)C(=O)O)cc2)cc1C(N)=O [Example 43, O-{4-[4-carbamoyl-5-(carbamoylamino)thiophen-2-yl]phenyl}-N-cyclohexyl-L-homoserine]	< 1	–
NC(=O)Nc1sc(-c2ccc(/C=C/C[C@@H](NC3CCCCC3)C(=O)O)cc2)cc1C(N)=O [Example 44, (2R,4E)-5-{4-[4-carbamoyl-5-(carbamoylamino)thiophen-2-yl]phenyl}-2-(cyclohexylamino)pent-4-enoic acid]	< 1	–
NC(=O)Nc1sc(-c2ccc(N(CC[C@H](N)C(=O)O)Cc3ccccc3)cc2)cc1C(N)=O [Example 45, (2S)-2-amino-4-(benzyl{4-[4-carbamoyl-5-(carbamoylamino)thiophen-2-yl]phenyl}amino)butanoic acid]	< 1	–
NC(=O)Nc1cc(-c2ccc(OCC[C@H](N)C(=O)O)cc2)sc1C(N)=O [Example 46, O-{4-[5-carbamoyl-4-(carbamoylamino)-2-thienyl]phenyl}-L-homoserine]	< 1	–
NC(=O)Nc1cc(-c2ccc(C[C@H](N)C(=O)O)cc2)sc1C(N)=O [Example 47, 4-[5-carbamoyl-4-(carbamoylamino)2-thienyl]-L-phenylalanine]	< 1	–
